From ChEMBL document CHEMBL1201862, “PubChem BioAssay data set” (2004)
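Cells were grown in 96-well plates and exposed to each compound for 48 hours at five concentrations; endpoints were interpolated linearly between bracketing concentrations, or set to the highest concentration if not reached. The concentration for 50% growth inhibition is given as GI50.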 Activity calls are given as the source filed them. Cut-off read from the data, not from the text of the source: active = GI50 up to about 1.1 µM and inactive = higher.

What was measured:
Assay in all cases: growth of human tumour cells (NCI), 48 h
SK-MEL-2 = test system: SK-MEL-2
786-0 = test system: 786-0
UO-31 = test system: UO-31
U-251 = test system: U-251
HCT-116 = test system: HCT-116
UACC-257 = test system: UACC-257
OVCAR-5 = test system: OVCAR-5
K562 = test system: K562
CCRF-CEM = test system: CCRF-CEM
SF-268 = test system: SF-268
LOX IMVI = test system: LOX IMVI
NCI-H460 = test system: NCI-H460
HL-60 = test system: HL-60
MOLT-4 = test system: MOLT-4
LXFL 529 = test system: LXFL 529
SW-620 = test system: SW-620
RXF 393 = test system: RXF 393
EKVX = test system: EKVX
Hs-578T = test system: Hs-578T
OVCAR-4 = test system: OVCAR-4

CCOC(=O)NC(=O)c1cn(CC(=O)NCC(=O)NCC(=O)NCCCN2CCN(CCCNC(=O)CNC(=O)CNC(=O)Cn3cc(C(=O)NC(=O)OCC)c(=O)[nH]c3=O)CC2)c(=O)[nH]c1=O
GI50 (SK-MEL-2): > 100 µM (inactive)
GI50 (786-0): > 100 µM (inactive)
GI50 (UO-31): > 100 µM (inactive)
GI50 (U-251): > 100 µM (inactive)
GI50 (HCT-116): > 100 µM (inactive)
GI50 (UACC-257): > 100 µM (inactive)
GI50 (OVCAR-5): > 100 µM (inactive)
GI50 (K562): > 100 µM (inactive)
GI50 (CCRF-CEM): > 100 µM (inactive)
GI50 (SF-268): > 100 µM (inactive)
GI50 (LOX IMVI): > 100 µM (inactive)
GI50 (NCI-H460): > 100 µM (inactive)
GI50 (HL-60): > 100 µM (inactive)
GI50 (MOLT-4): > 100 µM (inactive)
GI50 (LXFL 529): > 100 µM (inactive)
GI50 (SW-620): > 100 µM (inactive)

CN1CCC2(CC1)C(=O)N(NC(N)=O)C(=O)C2c1ccccc1 (configuration not stated)
GI50 (SK-MEL-2): > 100 µM (inactive)
GI50 (786-0): > 100 µM (inactive)
GI50 (UO-31): > 100 µM (inactive)
GI50 (U-251): > 100 µM (inactive)
GI50 (HCT-116): > 100 µM (inactive)
GI50 (UACC-257): > 100 µM (inactive)
GI50 (OVCAR-5): > 100 µM (inactive)
GI50 (K562): > 100 µM (inactive)
GI50 (CCRF-CEM): > 100 µM (inactive)
GI50 (SF-268): > 100 µM (inactive)
GI50 (LOX IMVI): > 100 µM (inactive)
GI50 (NCI-H460): > 100 µM (inactive)
GI50 (RXF 393): > 100 µM (inactive)
GI50 (EKVX): > 100 µM (inactive)
GI50 (HL-60): > 100 µM (inactive)
GI50 (MOLT-4): > 100 µM (inactive)
GI50 (Hs-578T): > 100 µM (inactive)
GI50 (OVCAR-4): > 100 µM (inactive)
GI50 (SW-620): > 100 µM (inactive)

CCCN(C(=O)c1c(Cl)nnc(Cl)c1C(=O)c1cc(Cl)nnc1Cl)c1cc(Cl)nnc1Cl
GI50 (SK-MEL-2): 14.4 µM (inactive)
GI50 (786-0): 5.46 µM (inactive)
GI50 (UO-31): 17 µM (inactive)
GI50 (U-251): 16.2 µM (inactive)
GI50 (HCT-116): 6.87 µM (inactive)
GI50 (UACC-257): 14.2 µM (inactive)
GI50 (OVCAR-5): 21 µM (inactive)
GI50 (K562): 4.19 µM (inactive)
GI50 (CCRF-CEM): 2.92 µM (inactive)
GI50 (SF-268): 4.35 µM (inactive)
GI50 (LOX IMVI): 5.47 µM (inactive)
GI50 (NCI-H460): 20.9 µM (inactive)
GI50 (RXF 393): 2.86 µM (inactive)
GI50 (EKVX): 12.7 µM (inactive)
GI50 (HL-60): 2.48 µM (inactive)
GI50 (MOLT-4): 3.36 µM (inactive)
GI50 (Hs-578T): 3.24 µM (inactive)
GI50 (OVCAR-4): 14.5 µM (inactive)
GI50 (SW-620): 6.67 µM (inactive)

CN(C(=O)C12C3C4(C(=O)O)C1(C(=O)N(C)C(C)(C)C)C1C2(C(=O)O)C3(C(=O)N(C)C(C)(C)C)C14C(=O)N(C)C(C)(C)C)C(C)(C)C (configuration not stated)
GI50 (SK-MEL-2): > 100 µM (inactive)
GI50 (786-0): > 100 µM (inactive)
GI50 (UO-31): > 100 µM (inactive)
GI50 (U-251): > 100 µM (inactive)
GI50 (HCT-116): > 100 µM (inactive)
GI50 (UACC-257): > 100 µM (inactive)
GI50 (OVCAR-5): > 100 µM (inactive)
GI50 (K562): > 100 µM (inactive)
GI50 (CCRF-CEM): > 100 µM (inactive)
GI50 (SF-268): > 100 µM (inactive)
GI50 (LOX IMVI): > 100 µM (inactive)
GI50 (NCI-H460): > 100 µM (inactive)
GI50 (RXF 393): > 100 µM (inactive)
GI50 (EKVX): > 100 µM (inactive)
GI50 (HL-60): > 100 µM (inactive)
GI50 (MOLT-4): > 100 µM (inactive)
GI50 (Hs-578T): > 100 µM (inactive)
GI50 (OVCAR-4): > 100 µM (inactive)
GI50 (SW-620): > 100 µM (inactive)

O=C(/C=C\c1cccc2ccccc12)c1ccc(Br)cc1
GI50 (786-0): 19.2 µM (inactive)
GI50 (UO-31): 19.1 µM (inactive)
GI50 (U-251): 16.1 µM (inactive)
GI50 (HCT-116): 16.7 µM (inactive)
GI50 (UACC-257): 22.3 µM (inactive)
GI50 (OVCAR-5): 18 µM (inactive)
GI50 (K562): 18.1 µM (inactive)
GI50 (CCRF-CEM): 20.9 µM (inactive)
GI50 (SF-268): 23.7 µM (inactive)
GI50 (NCI-H460): 18.4 µM (inactive)
GI50 (EKVX): 24 µM (inactive)
GI50 (HL-60): 15 µM (inactive)
GI50 (MOLT-4): 31 µM (inactive)
GI50 (OVCAR-4): 16.4 µM (inactive)
GI50 (LXFL 529): 18.1 µM (inactive)
GI50 (SW-620): 12.1 µM (inactive)

CC(CCC#N)(CCC#N)C(=O)CC(O)(C(F)(F)F)C(F)(F)F
GI50 (SK-MEL-2): 33.7 µM (inactive)
GI50 (786-0): 2.12 µM (inactive)
GI50 (UO-31): 4.08 µM (inactive)
GI50 (U-251): 9.16 µM (inactive)
GI50 (HCT-116): 2.8 µM (inactive)
GI50 (UACC-257): 6.41 µM (inactive)
GI50 (OVCAR-5): 12.3 µM (inactive)
GI50 (K562): 1.36 µM (inactive)
GI50 (CCRF-CEM): 1.54 µM (inactive)
GI50 (SF-268): 7.89 µM (inactive)
GI50 (LOX IMVI): 2.07 µM (inactive)
GI50 (NCI-H460): 16.6 µM (inactive)
GI50 (RXF 393): 2.07 µM (inactive)
GI50 (EKVX): 20.7 µM (inactive)
GI50 (HL-60): 0.817 µM (active)
GI50 (MOLT-4): 0.547 µM (active)
GI50 (Hs-578T): 15.3 µM (inactive)
GI50 (OVCAR-4): 5.02 µM (inactive)
GI50 (SW-620): 2.76 µM (inactive)

N#Cc1c(NC(=S)NCc2ccccc2)sc2c1CCN(N1CCc3c(sc(NC(=S)NCc4ccccc4)c3C#N)C1)C2
GI50 (SK-MEL-2): > 100 µM (inactive)
GI50 (786-0): > 100 µM (inactive)
GI50 (UO-31): > 100 µM (inactive)
GI50 (U-251): > 100 µM (inactive)
GI50 (HCT-116): > 100 µM (inactive)
GI50 (UACC-257): > 100 µM (inactive)
GI50 (OVCAR-5): > 100 µM (inactive)
GI50 (K562): > 100 µM (inactive)
GI50 (CCRF-CEM): > 100 µM (inactive)
GI50 (SF-268): > 100 µM (inactive)
GI50 (LOX IMVI): > 100 µM (inactive)
GI50 (NCI-H460): > 100 µM (inactive)
GI50 (RXF 393): > 100 µM (inactive)
GI50 (EKVX): > 100 µM (inactive)
GI50 (HL-60): > 100 µM (inactive)
GI50 (MOLT-4): > 100 µM (inactive)
GI50 (Hs-578T): > 100 µM (inactive)
GI50 (OVCAR-4): > 100 µM (inactive)
GI50 (SW-620): > 100 µM (inactive)

COc1ccc(NC(=O)c2cc(NC(=O)/C=C/c3ccccc3)c(OC)c(OC)c2)cc1
GI50 (SK-MEL-2): 2.58 µM (inactive)
GI50 (786-0): 11.7 µM (inactive)
GI50 (UO-31): 1.98 µM (inactive)
GI50 (U-251): 8.91 µM (inactive)
GI50 (HCT-116): 2.48 µM (inactive)
GI50 (UACC-257): 44.1 µM (inactive)
GI50 (OVCAR-5): 40.7 µM (inactive)
GI50 (K562): 13.4 µM (inactive)
GI50 (CCRF-CEM): 7 µM (inactive)
GI50 (SF-268): 56.8 µM (inactive)
GI50 (LOX IMVI): 4.73 µM (inactive)
GI50 (NCI-H460): 11.7 µM (inactive)
GI50 (RXF 393): 11.2 µM (inactive)
GI50 (EKVX): 54.2 µM (inactive)
GI50 (HL-60): 6.19 µM (inactive)
GI50 (MOLT-4): 6 µM (inactive)
GI50 (Hs-578T): 43.5 µM (inactive)
GI50 (OVCAR-4): 53 µM (inactive)
GI50 (SW-620): 6.81 µM (inactive)

CCOC(=O)CC(NC(=O)c1nc[nH]c1[N+](=O)[O-])C(=O)OCC (configuration not stated)
GI50 (SK-MEL-2): 92.7 µM (inactive)
GI50 (786-0): 52 µM (inactive)
GI50 (UO-31): 77.6 µM (inactive)
GI50 (U-251): 15.3 µM (inactive)
GI50 (HCT-116): 43.4 µM (inactive)
GI50 (UACC-257): 34.1 µM (inactive)
GI50 (K562): 38.2 µM (inactive)
GI50 (CCRF-CEM): 37.4 µM (inactive)
GI50 (SF-268): 40.6 µM (inactive)
GI50 (LOX IMVI): 60.1 µM (inactive)
GI50 (NCI-H460): 52 µM (inactive)
GI50 (EKVX): 50.1 µM (inactive)
GI50 (HL-60): > 10 µM (inactive)
GI50 (MOLT-4): 43.1 µM (inactive)
GI50 (OVCAR-4): 50.7 µM (inactive)
GI50 (LXFL 529): 41.5 µM (inactive)
GI50 (SW-620): 37.2 µM (inactive)

O=C1O[C@H]2[C@H](OC(=O)c3cc(O)c(O)c(O)c3)[C@@H](OC(=O)c3cc(O)c(O)c4c3[C@@H]3C1=CC(=O)C(O)(O)C3(O)O4)[C@H](OC(=O)c1cc(O)c(O)c(O)c1)O[C@@H]2COC(=O)c1cc(O)c(O)c(O)c1 (some centres not stated) [TERCHEBIN]
GI50 (SK-MEL-2): > 100 µM (inactive)
GI50 (786-0): 60.8 µM (inactive)
GI50 (UO-31): 18.5 µM (inactive)
GI50 (U-251): 54.1 µM (inactive)
GI50 (HCT-116): 33 µM (inactive)
GI50 (UACC-257): > 100 µM (inactive)
GI50 (OVCAR-5): 65.6 µM (inactive)
GI50 (K562): 31.9 µM (inactive)
GI50 (CCRF-CEM): 23 µM (inactive)
GI50 (SF-268): 59.3 µM (inactive)
GI50 (LOX IMVI): 25.1 µM (inactive)
GI50 (NCI-H460): 30.1 µM (inactive)
GI50 (RXF 393): > 100 µM (inactive)
GI50 (EKVX): 39.4 µM (inactive)
GI50 (HL-60): 26.7 µM (inactive)
GI50 (MOLT-4): 41.9 µM (inactive)
GI50 (Hs-578T): > 100 µM (inactive)
GI50 (OVCAR-4): 32.9 µM (inactive)
GI50 (SW-620): 63.5 µM (inactive)
